Measurements from patent US12521423B2, “Method and composition for treating gastrointestinal inflammatory disorders” (THE REGENTS OF THE UNIVERSITY OF COLORADO, a body corporate, priority 2019, dated 2026).
Like-named read-outs stand apart in the source and are kept apart here.

Columns and labels:
T84 cells [1] = test: HPLC adenylate and energy metabolite analyses of treated T84 cells; assay type: cell-based
T84 cells [2] = test: calcium switch assay / transepithelial resistance of T84 monolayers; assay type: cell-based
Procedure: This model utilizes transient divalent cation chelation to disrupt epithelial tight junctions in fully confluent cells.
Briefly, polarized, high-resistant (>1,500 Ω·cm2) T84 monolayers on 0.33 cm^2 (non-metabolomic) or 5 cm^2 (metabolomics) transwell inserts (Costar, 0.4 μm) were equilibrated for 1 h in HBSS in the case of non-metabolomic analyses and approx. 20 h in the case of metabolomic analyses. All experiments were performed at 37° C. and transepithelial resistance monitored using a voltohmeter (World Precision Instruments EVOM). Extracellular Ca^2+ was chelated via washing and incubation with Ca^2+-free HBSS supplemented with 2 mM EDTA for 5 min, after which the samples were washed into HBSS with normal calcium (1.8 mM).
To our surprise, this analysis identified an inverse correlation between Hpx and barrier, with Hpx spiking from approx. 1 to 3.5 μM (p<0.004) at the barrier nadir. […] To extend this observation, T84 cells were supplemented with Hpx (range 0.1-1 mM, 20 h) and a calcium switch assay performed.
Allopurinol (Allo) is a structural analog of hypoxanthine commonly used to treat gout. The drug is metabolized into oxipurinol by xanthine oxidase (XO), which in turn inhibits XO and decreases uric acid. Allopurinol was employed as a competitive substrate/inhibitor for hypoxanthine-guanine phosphoribosyl transferase (HGPRT) to assess the contribution of Hpx salvage to the barrier formation process using the calcium switch assay and transepithelial resistance measurements described above.

T84 cells [3] = details: 1 mM hypoxanthine, 88 h, p<0.001
Procedure: We also employed a scratch wound assay to assess the influence of Hpx supplementation on cellular restitution. T84 cells were plated at 35,000 cells per well on a 96-well ImageLock tissue culture plate (Essen Bioscience Inc.) and incubated in standard conditions until a confluent cell monolayer formed (˜24 h). Precise and reproducible wounds were made in all wells with a WoundMaker (Essen Bioscience Inc.). […] Initial images were taken immediately after wounding at 10× using the IncuCyte live-cell imaging (Essen Bioscience Inc.), and then every 2 h over the course of 88 h in culture. Relative wound closure (%) was quantified for every image using the relative wound density metric, a measure of cell density in the wound area relative to the cell density outside of the wound area.

T84 cells [4] = details: 1 mM Hpx
Procedure: To examine the impact of Hpx supplementation on epithelial function during physiologically-relevant metabolic stress, T84 cells were exposed to hypoxia (1% O2, 40 h) in the presence and absence of 1 mM Hpx, and barrier and adenylate metabolites monitored.

[5] = test system: colonic adenylate and energy metabolism; details: Hpx 1 mM enema 5 and 18 h before sacrifice
Procedure: To assess the influence of purine supplementation on colonic adenylate and energy metabolism, MDP was depleted by treating mice with streptomycin, and reconstituted by administration of Hpx (1 mM) by enema at time points of 5 and 18 h before sacrifice and distal colon tissue metabolite extracts analyzed.

DSS colitis = details: for body weight lost: no Hpx ~9; for sterility index: from 0; for tissue AEC: from 0.30; for BiP: from 0.41; for sterile inner mucin layer: from ~1; for colon length: no Hpx ~5.75
Procedure: (§1) To validate the role of exogenous purine supply on colonic function, streptomycin-treated mice (S-0 mM HPX-DSS) were supplemented with 1 and 5 mM Hpx (S-1 mM HPX-DSS and S-5 mM HPX-DSS) in their drinking water and submitted to DSS colitis.

[6] = 10 mM Hpx in drinking water
Procedure: as §1

murine microbiota = test: HPLC analyses of murine fecal extracts after streptomycin treatment; assay type: in vivo, mice
Description: Analyses of soluble, extracellular murine fecal metabolite extracts by HPLC identified substantial levels of available purine (˜550 nmol/g), primarily as hypoxanthine (Hpx, ˜350 nmol/g). The production of purines by the microbiota was verified by fecal extract analyses of streptomycin-treated mice, which decreased the available fecal purine more than 80%, lowering available Hpx to <50 nmol/g.

[7] = test system: total colonic purine levels; test: colon tissue metabolites at baseline in CR mice, streptomycin treatment and K12 colonization; assay type: in vivo; details: no DSS
Description: (§2) Bacterial supply of purine was depleted in CR mice (CR-CNTL) via streptomycin treatment (S-CR-CNTL), and reconstituted by colonization with streptomycin-resistant K12 (S-CR-K12).

DSS-induced colitis = test: DSS colitis in CR mice, streptomycin treatment and K12 colonization; details: colon tissue
Description: as §2
Visualization of the colon tissues by hematoxylin and eosin (H&E) staining in the CR mouse groups reveal two key differences between tissue with and without MDP supply. […] These phenotypes correlate with the adenylate energy charge (AEC, (ATP+0.5×ADP)/(ATP+ADP+AMP))—a commonly used index used to indicate cellular energy status that is defined by relative adenine nucleotide levels, providing a more functionally relevant indicator of energy balance than ATP and/or PCr alone.
Given the association between the AEC and cellular function and the metabolic data indicative of MDP promoting flux through ATP, the colon tissue analyses were extended to Ki67 as marker of proliferation.
Due to the importance of ATP supply for ER function, the colon tissue immunofluorescent analyses were extended to BiP as a marker of ER stress and the UPR.
Goblet cells require robust ER function for mucin protein folding and dimerization, prompting analyses of the impact of MDP on colonic mucin production and secretion. To observe mucin production tissue sections were stained with alcian blue. […]

[8] = subconfluent T84 cells, Allo 20 h

Oc1ncnc2[nH]ncc12 [Allo, Allopurinol]
Adenine, IMP, and UA levels (T84 cells [1]; [8]): undetectable to trace levels
TAE (T84 cells [1]; [8]): corresponding increase
Xan and Ino levels (T84 cells [1]; [8]): small increases
PCr level (T84 cells [1]; subconfluent T84 cells, Allo 20 h, from approx. 20): ~27 µM
Hpx level (T84 cells [1]; subconfluent T84 cells, Allo 20 h, from approx. 400): ~250 nM
Ado level (T84 cells [1]; subconfluent T84 cells, Allo 20 h, from trace/undetectable): approx. 400 nM
T84 cell barrier formation (T84 cells [2]; Allo 1 mM, p<0.001): significantly attenuated

Nc1ncnc2c1ncn2[C@@H]1O[C@H](CO)[C@@H](O)[C@H]1O [adenosine]
Hpx increase in T84 IECs (T84 cells [1]; 1 mM adenosine): over 150 fold

Nc1ncnc2c1ncn2[C@@H]1O[C@H](COP(=O)(O)OP(=O)(O)O)[C@@H](O)[C@H]1O [ADP, adenosine diphosphate]
Hpx increase in T84 IECs (T84 cells [1]; 100 μM ADP): ~15 fold

O=c1[nH]cnc2nc[nH]c12 [Hpx, hypoxanthine]
increase of epithelial wound closure rate following scratching (T84 cells [3]): approx. 1.5 fold
total available energy (TAE) under hypoxia (T84 cells [4]; hypoxia 1% O2): significant recovery
increase of overall barrier resistance above control conditions (T84 cells [4]; hypoxia 1% O2, 40 h): approx. 1.3 fold
colonic AMP ([5]; from 58): 84 nmol/g
colonic ADP ([5]; from 80): 123 nmol/g
colonic ATP ([5]; from 192): 154 nmol/g
total colonic purine ([5]; from 490): 560 nmol/g
colonic phosphocreatine (PCr) ([5]; from 3700): 2000 nmol/g
body weight lost (DSS colitis; 1 mM Hpx in drinking water): ~3%
sterility index (DSS colitis; 1 mM Hpx): 0.56
tissue proliferation (DSS colitis; 1 mM Hpx, from 0.22): 0.54 Ki67/DAPI
tissue AEC (DSS colitis; 1 mM Hpx): 0.38
BiP (DSS colitis; 1 mM Hpx): 0.23 BiP/DAPI
sterile inner mucin layer (DSS colitis; 1 mM Hpx): ~9 μm
colon length (DSS colitis; 1 mM Hpx): ~6.3 cm
body weight lost (DSS colitis; 5 mM Hpx in drinking water): ~7%
tissue proliferation (DSS colitis; 5 mM Hpx, control 0.22): 0.19 Ki67/DAPI
sterility index (DSS colitis; 5 mM Hpx): 0.78
tissue AEC (DSS colitis; 5 mM Hpx): 0.42
BiP (DSS colitis; 5 mM Hpx): 0.24 BiP/DAPI
sterile inner mucin layer (DSS colitis; 5 mM Hpx): ~11 μm
colon length (DSS colitis; 5 mM Hpx): ~6.5 cm
epithelial cell population and mucin production (H&E) (DSS colitis; Hpx supplementation): recovered
goblet cell mucin production, thecal volumes (DSS colitis; Hpx supplementation): increased thecal volumes
urination [6]: excessively urinate
increase of intracellular Hpx levels (T84 cells [1]; T84 cells, Hpx 0.1-1 mM, 20 h pre-exposure): up to 100 fold
barrier throughout the course of the experiment (T84 cells [2]; 300 μM and 1 mM Hpx, p<0.03): improved barrier
cellular barrier and barrier reformation (calcium switch) (T84 cells [2]; Hpx pre-loading 0.1-1 mM, 20 h): protective of cellular barrier and promoted barrier reformation in a dose-responsive manner

[H]/N=C(/N)N[C@H]1[C@H](O)[C@@H](O)[C@H](O[C@@H]2O[C@@H](C)[C@](O)(C=O)[C@H]2O[C@@H]2O[C@@H](CO)[C@H](O)[C@@H](O)[C@@H]2NC)[C@@H](N/C(N)=N\[H])[C@@H]1O [streptomycin]
measurable fecal hypoxanthine (murine microbiota; 1 day after streptomycin treatment): nearly complete loss
available fecal Hpx (murine microbiota; streptomycin-treated mice): < 50 nmol/g
decrease of available fecal purine (murine microbiota; streptomycin-treated mice): more than 80%
colon tissue Xan ([7]; CR-CNTL 207): 69 nmol/g
total colonic purine levels ([7]; CR-CNTL 809): 630 nmol/g
goblet cell thecal volumes (alcian blue) (DSS-induced colitis): broad decline
adenylate energy charge (AEC) (DSS-induced colitis; CR-CNTL-DSS 0.51): 0.44
